In patent publication US10457703B2, “Bile acid derivatives as FXR/TGR5 agonists and methods of use thereof” (ENANTA PHARMACEUTICALS, INC., priority 2015, dated 2019) one finds EC50 and Emax data, which are given here for 14 molecules.

By EC50 is commonly meant the concentration needed to bring the measured effect to its halfway point. High values mean a need for much substance, low ones an effect from little substance.

The assay addresses human FXR (NR1H4) (Homo sapiens (Human), UniProt Q96RI1). Briefly: Human FXR (NR1H4) Assay (Gal4 promoter driven luciferase reporter, Indigo Bioscience kit).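 For Efficacy (%): 100% equals the efficacy of CDCA; efficacy normalized to CDCA set as 100%.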 The class given is cell-based. As to conditions: for EC50: Human FXR (NR1H4) Assay, potency ranges; for Emax: read-out: Efficacy (%). In short, it runs like this: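 CHO reporter cells expressing human FXR with an FXR-responsive luciferase reporter, treated with compound doses at 0.2% DMSO. Incubation lasted 22 h at 37 °C before luciferase detection reagent was added. Luminescence was then read.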
For orientation: In a reporter assay the amount or activity of a reporter protein is the signal.

Sequence of human FXR (NR1H4) (Q96RI1 whole entry, the tested form may be a part): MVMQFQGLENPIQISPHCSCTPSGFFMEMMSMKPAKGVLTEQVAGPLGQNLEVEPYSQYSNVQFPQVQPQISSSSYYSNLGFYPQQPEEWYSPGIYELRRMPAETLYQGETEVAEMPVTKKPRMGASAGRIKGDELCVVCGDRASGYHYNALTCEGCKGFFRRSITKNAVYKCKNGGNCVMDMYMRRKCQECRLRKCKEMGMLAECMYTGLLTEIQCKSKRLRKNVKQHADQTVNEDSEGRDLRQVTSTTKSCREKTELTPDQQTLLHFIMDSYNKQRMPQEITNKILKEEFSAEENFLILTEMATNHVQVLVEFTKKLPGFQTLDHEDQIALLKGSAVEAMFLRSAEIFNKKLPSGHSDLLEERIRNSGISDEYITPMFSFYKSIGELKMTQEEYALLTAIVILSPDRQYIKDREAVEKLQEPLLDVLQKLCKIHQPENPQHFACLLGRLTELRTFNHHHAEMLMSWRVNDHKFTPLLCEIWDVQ

For `CC[C@H]1[C@@H](O)[C@@H]2[C@H](CC[C@]3(C)[C@@H]([C@H](C)COC(=O)NS(=O)(=O)c4ccc(-n5cncn5)cc4)CC[C@@H]23)[C@@]2(C)CC[C@@H](O)C[C@@H]12` [Example 44-f], the EC50 was less than 100 nM and the Emax turned out to be 216%.
For `CC[C@H]1[C@@H](O)[C@@H]2[C@H](CC[C@]3(C)[C@@H]([C@H](C)CCCOC(=O)N4CCOCC4)CC[C@@H]23)[C@@]2(C)CC[C@@H](O)C[C@@H]12` [Example 130] the same measures were 1000 to 10000 nM and 256%.
The matching figures for `CC[C@H]1[C@@H](O)[C@@H]2[C@H](CC[C@]3(C)[C@@H]([C@H](C)CCOC(=O)NS(=O)(=O)c4ccccn4)CC[C@@H]23)[C@@]2(C)CC[C@@H](O)C[C@@H]12` [Example 72]: 1000 to 10000 nM and 305%.
Take `CC[C@H]1[C@@H](O)[C@@H]2[C@H](CC[C@]3(C)[C@@H]([C@H](C)COC(=O)NS(=O)(=O)c4ccc(O)cc4)CC[C@@H]23)[C@@]2(C)CC[C@@H](O)C[C@@H]12` [Example 39]: the EC50 was 100 to 1000 nM and the Emax came out at 182%.
For `CC[C@H]1[C@@H](O)[C@@H]2[C@H](CC[C@]3(C)[C@@H]([C@H](C)CCCOC(=O)N(CC)CC)CC[C@@H]23)[C@@]2(C)CC[C@@H](O)C[C@@H]12` [Example 132] the same measures were 1000 to 10000 nM and 205%.
The matching figures for `CCCCCNC(=O)OCC[C@@H](C)[C@H]1CC[C@H]2[C@@H]3[C@H](O)[C@H](CC)[C@@H]4C[C@H](O)CC[C@]4(C)[C@H]3CC[C@]12C` [Example 150]: 100 to 1000 nM and 303%.
Consider `CC[C@H]1[C@@H](O)[C@@H]2[C@H](CC[C@]3(C)[C@@H]([C@H](C)CCOC(=O)NS(=O)(=O)c4ccc(-c5ccccc5)s4)CC[C@@H]23)[C@@]2(C)CC[C@@H](O)C[C@@H]12` [Example 64], for which the EC50 lay in the range of 100 to 1000 nM and the Emax was 281%.
The matching figures for `CC[C@H]1[C@@H](O)[C@@H]2[C@H](CC[C@]3(C)[C@@H]([C@H](C)CCOC(=O)N[C@H](C)CCO)CC[C@@H]23)[C@@]2(C)CC[C@@H](O)C[C@@H]12` [Example 172]: 100 to 1000 nM and 201%.
For `CC[C@H]1[C@@H](O)[C@@H]2[C@H](CC[C@]3(C)[C@@H]([C@H](C)CCOC(=O)NC(C)CO)CC[C@@H]23)[C@@]2(C)CC[C@@H](O)C[C@@H]12` (stereo partly shown) [Example 139] the same measures were 100 to 1000 nM and 310%.
Take `CC[C@H]1[C@@H](O)[C@@H]2[C@H](CC[C@]3(C)[C@@H]([C@H](C)CCOC(=O)NS(=O)(=O)C4CCCC4)CC[C@@H]23)[C@@]2(C)CC[C@@H](O)C[C@@H]12` [Example 47]: the EC50 was less than 100 nM and the Emax was found to be 321%.
Consider `CC[C@H]1[C@@H](O)[C@@H]2[C@H](CC[C@]3(C)[C@@H]([C@H](C)CCOC(=O)NS(=O)(=O)N4CC(F)(F)C4)CC[C@@H]23)[C@@]2(C)CC[C@@H](O)C[C@@H]12` [Example 104-j], for which the EC50 is less than 100 nM and the Emax is 327%.
For `CC[C@H]1[C@@H](O)[C@@H]2[C@H](CC[C@]3(C)[C@@H]([C@H](C)CCCOC(=O)NS(=O)(=O)N(C)C)CC[C@@H]23)[C@@]2(C)CC[C@@H](O)C[C@@H]12` [Example 118] the same measures were 100 to 1000 nM and 367%.
For the molecule `CC[C@H]1[C@@H](O)[C@@H]2[C@H](CC[C@]3(C)[C@@H]([C@H](C)CCOC(=O)NS(=O)(=O)CCc4cccc(Cl)c4)CC[C@@H]23)[C@@]2(C)CC[C@@H](O)C[C@@H]12` [Example 91], the half-maximal effective concentration (EC50) was in the range of 100 to 1000 nM and the Emax was 313%.
For `CC[C@H]1[C@@H](O)[C@@H]2[C@H](CC[C@]3(C)[C@@H]([C@H](C)CCOC(=O)N4CCC[C@@H]4CO)CC[C@@H]23)[C@@]2(C)CC[C@@H](O)C[C@@H]12` [Example 209], the concentration for a half-maximal effect (EC50) is less than 100 nM and the Emax was 199%.
